Source: patent US20220184060A1, “PHARMACEUTICAL COMPOSITION COMPRISING SPHERICAL AGGLOMERATES OF TIMAPIPRANT” (Chiesi Farmaceutici S.p.A., priority 2018, published 2022)
Several values for one entry are separate records, joined by “and”; a condition that tells them apart may be missing. Identical values can stand only once.

Assays:
Type in all cases: physicochemical
[1] = Primary particle size distribution by laser diffraction (Malvern Mastersizer 2000) after break up of spherical agglomerates; details: for PSD d (0.1), mean result / PSD d (0.5), mean result: mean of 10 acquisitions, primary particles after sonication in water; for PSD d (0.1) / PSD d (0.5): single acquisition (Measure 1-10), primary particles, agglomerates dispersed in water by 10 minutes sonication, 1500 rpm
Method: The primary particle size distribution results are produced by means of a Malvern 2000 laser diffraction equipment by the analysis of the primary particles in suspension.
The particle size distribution laser diffraction measures were performed using a Malvern Mastersizer 2000 equipped with a Hydro 2000S cell for the wet suspension of the Timapiprant primary particles. The spherical agglomerates obtained according to the Examples 3 and 5, were dispersed in water by means of 10 minutes sonication and then added to the cell, previously filled with water, until an obscuration within 5-10% was obtained.

[2] = Specific surface area (SSA) by BET nitrogen adsorption (TriStar, Micromeritics); details: degassing 2 hours at 40° C.
Method: The specific surface areas (SSA) of spherical agglomerates of timapiprant obtained according to Examples 3, 5,7 and the micronized timapiprant were measured was determined by BET nitrogen adsorption using the TriStar of Micromeritics apparatus according to following parameters: • Isotherm, Adsorbing/Desorbing Run: 0 to 1 p/p0 • Vials: ⅜ Inch, Degassing Pre-analysis: 2 hours at 40° C., Nitrogen as adsorbate • Preparation: Evacuation Rate 10 mmHg/s; Unrestricted evacuation from 5 mmHg • Vacuum setpoint: 10 mmHg, Evacuation time: 1 hour • Leak Test Duration: 120 s, Outgas Test Duration: 180 s • Measure p0 at intervals during the analysis, Enter the analysis bath temperature: […]77 kelvin • Equilibration Interval: 5 s; Minimum Equilibration Delay at p/p0≥0,995 per 600 s.

[3] = Flowability of the blend material (API with tablet excipients) before compression; details: blend material of API with the excipients of Table 3; for Flow properties of the blend (in words): suitability for direct compression
Method: The spherical agglomerates of timapiprant or the micronized timapiprant, together with the microcrystalline cellulose, the croscarmellose sodium, the poloxamer, the sodium lauryl sulphate and the colloidal silicon dioxide in the above amounts, are sieved in a sieve of 1.2 mm. The lactose monohydrate is then added, and the resulting mixture is blended in a free fall blender for at least 15 minutes. The magnesium stearate is added to the obtained mixture which is further blended in the free fall blender for additional 3 minutes.

Compound | PSD d (0.1), mean result [1] | PSD d (0.5), mean result [1] | PSD d (0.1) [1] | PSD d (0.5) [1] | SSA (specific surface area) [2] | Flowability (s/100 g) [3] | Flow properties of the blend (in words) [3] | SSA (specific surface area) ([2]; listed as micronized timapiprant) | Flowability (s/100 g) ([3]; listed as Spherical agglomerates of timapirpant)
Cc1c(Cc2ccc3ccccc3n2)c2cc(F)ccc2n1CC(=O)O [Spherical agglomerates of timapiprant of Example 3] [5-fluoro-2-methyl-3-(quinolin-2-ylmethyl)-1H-indol-1-yl)acetic acid] | 0.28 μm | 0.56 μm | 0.28 μm and 0.275 μm and 0.278 μm and 0.279 μm | 0.56 μm and 0.555 μm and 0.561 μm and 0.559 μm | 13.1 m^2/g | – | – | – | –
Cc1c(Cc2ccc3ccccc3n2)c2cc(F)ccc2n1CC(=O)O [Micronized Timapiprant, reference compound] | – | – | – | – | 8.0 m^2/g and 7.8 m^2/g | ∞ | very poor flow properties | less than 8.5 m^2/g | –
Cc1c(Cc2ccc3ccccc3n2)c2cc(F)ccc2n1CC(=O)O [Spherical agglomerates of timapiprant of Example 7] [5-fluoro-2-methyl-3-(quinolin-2-ylmethyl)-1H-indol-1-yl)acetic acid] | – | – | – | – | 15.5 m^2/g | – | – | – | –
Cc1c(Cc2ccc3ccccc3n2)c2cc(F)ccc2n1CC(=O)O [Spherical agglomerates of timapiprant of Example 5] [5-fluoro-2-methyl-3-(quinolin-2-ylmethyl)-1H-indol-1-yl)acetic acid] | 0.31 μm | 0.64 μm | 0.314 μm and 0.315 μm | 0.64 μm and 0.642 μm and 0.638 μm and 0.641 μm and 0.639 μm | 10.1 m^2/g | – | good flowability | – | 4 sec s/100 g
